According to patent publication US9199962B2, “Substituted azaheterocycles for the treatment of cancer” (Merck Patent GmbH, priority 2011, dated 2015):
Like-named read-outs stand apart in the source and are kept apart here.

Tests used:
[1] = biological target: T1, GST-FAK (N-terminal GST fusion with truncated human FAK (376-1052 (end) amino acids)) (Homo sapiens, UniProt Q05397); assay: Biochemical enzyme assay for FAK activity (Caliper LC3000 mobility shift); details: 100 uM ATP
T1 construct: truncated human FAK (376-1052 (end) amino acids)
T1 sequence (Q05397 376-1052): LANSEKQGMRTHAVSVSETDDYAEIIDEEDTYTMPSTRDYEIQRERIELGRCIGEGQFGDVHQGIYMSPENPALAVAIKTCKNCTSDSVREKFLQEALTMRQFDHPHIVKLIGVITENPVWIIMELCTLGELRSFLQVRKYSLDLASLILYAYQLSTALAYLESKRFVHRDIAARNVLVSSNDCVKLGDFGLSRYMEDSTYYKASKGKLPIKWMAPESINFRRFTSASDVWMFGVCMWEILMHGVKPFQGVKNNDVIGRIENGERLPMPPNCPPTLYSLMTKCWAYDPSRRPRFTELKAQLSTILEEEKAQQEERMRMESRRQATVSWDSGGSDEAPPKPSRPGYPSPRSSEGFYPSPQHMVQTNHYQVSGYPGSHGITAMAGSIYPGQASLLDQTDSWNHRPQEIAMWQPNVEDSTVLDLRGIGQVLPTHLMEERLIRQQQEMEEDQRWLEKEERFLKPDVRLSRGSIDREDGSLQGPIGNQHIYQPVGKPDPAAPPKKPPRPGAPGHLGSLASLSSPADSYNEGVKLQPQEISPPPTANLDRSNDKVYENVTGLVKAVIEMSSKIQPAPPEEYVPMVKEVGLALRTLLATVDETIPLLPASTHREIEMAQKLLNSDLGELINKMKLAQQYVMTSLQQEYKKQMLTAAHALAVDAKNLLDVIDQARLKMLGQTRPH
How it was run: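 Inhibitor dose series in DMSO were incubated 90 min at 25 °C with truncated GST-tagged human FAK (0.067 ng/µl) and FITC-labelled peptide substrate (1 µM), with ATP at 100 µM and FERM peptide at 1 mM (pH 7.5 HEPES). After EDTA quench, phosphorylated and unphosphorylated peptides were resolved electrophoretically. Percent conversion was fitted for IC50.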

[2] = biological target: T2, focal adhesion kinase (FAK) autophosphorylation at tyrosine 397 in HT29 cells (Homo sapiens, UniProt Q05397); assay: Cellular testing of FAK inhibitors: FAK autophosphorylation at tyrosine 397 in HT29 cells (Luminex-based assay); type: cell-based; details: 30 min serum-free
T2 construct: endogenous in cells; host or cells: HT29
T2 sequence (Q05397 whole entry): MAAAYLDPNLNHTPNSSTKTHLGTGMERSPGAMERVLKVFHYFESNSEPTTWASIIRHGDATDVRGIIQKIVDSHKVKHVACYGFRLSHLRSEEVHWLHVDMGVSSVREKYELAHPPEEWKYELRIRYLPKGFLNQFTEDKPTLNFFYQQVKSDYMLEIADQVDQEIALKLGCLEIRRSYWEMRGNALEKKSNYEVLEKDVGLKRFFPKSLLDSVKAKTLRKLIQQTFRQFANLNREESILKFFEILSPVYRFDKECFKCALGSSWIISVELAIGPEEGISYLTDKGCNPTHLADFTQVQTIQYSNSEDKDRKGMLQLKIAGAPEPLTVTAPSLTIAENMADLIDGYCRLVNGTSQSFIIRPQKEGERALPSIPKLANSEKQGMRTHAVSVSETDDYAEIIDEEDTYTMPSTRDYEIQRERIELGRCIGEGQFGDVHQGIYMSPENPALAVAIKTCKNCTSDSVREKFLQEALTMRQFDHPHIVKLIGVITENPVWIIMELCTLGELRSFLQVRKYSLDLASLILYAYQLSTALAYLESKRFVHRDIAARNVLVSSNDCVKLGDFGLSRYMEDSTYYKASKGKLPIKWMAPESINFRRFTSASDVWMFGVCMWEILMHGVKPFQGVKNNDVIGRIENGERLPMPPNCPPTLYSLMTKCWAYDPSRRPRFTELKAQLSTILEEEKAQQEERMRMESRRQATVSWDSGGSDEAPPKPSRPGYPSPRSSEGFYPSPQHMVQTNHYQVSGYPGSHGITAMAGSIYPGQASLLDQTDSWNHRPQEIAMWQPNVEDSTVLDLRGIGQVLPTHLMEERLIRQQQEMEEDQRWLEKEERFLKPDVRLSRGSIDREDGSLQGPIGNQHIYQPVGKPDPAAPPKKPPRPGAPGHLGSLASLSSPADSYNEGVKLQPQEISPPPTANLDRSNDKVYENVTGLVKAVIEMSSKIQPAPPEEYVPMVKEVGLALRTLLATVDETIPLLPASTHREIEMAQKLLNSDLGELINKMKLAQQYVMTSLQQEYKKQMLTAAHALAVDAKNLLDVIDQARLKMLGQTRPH
Procedure: 2. Assay Principle for Celluar Testing of FAK Inhibitors
Cellular activity of focal adhesion kinase (FAK) is determined by the degree of FAK autophosphorylation at tyrosine 397 using a Luminex-based assay. HT29 cells are plated with 30,000 cells per well of a 96-well plate in 100 μl medium (90% DMEM/10% FCS). At the following day, test compounds are added in a serial dilution under serum-free conditions for 30 min. Then, cells were lysed with 90 μl lysis buffer (20 mM Tris/HCl pH 8.0, 150 mM NaCl, 1% NP40, 10% Glycerol, 1% Phosphatase-Inhibitor II, 20 mM […]-Glycerolphosphat, 0.1% Protease-Inhibitor Cocktail III, 0.01% Benzonase) and lysates were cleared by centrifugation through a 96-well filter plate (0.65 μm). Samples were incubated with Luminex-beads which were coupled with an anti-total FAK antibody overnight at 4° C. with under gentle agitation. For detection of phospho-Y397-FAK a phosphospecific antibody and a species specific PE-labeled secondary antibody are added. The amount of phospho-Y397-FAK is determined in a Luminex100 machine measuring 100 events per well within 60 seconds.
Counts from samples treated with a FAK reference inhibitor are subtracted as pharmacological blank. Counts from samples treated with test compounds are calculated as percent of control from solvent treated (0.3% DMSO) samples. IC50 values were determined using AssayExplorer software.

[3] = Table 3, phospho-Y397-FAK, read-out: HT-29 IC50
[4] = Table 4, phospho-Y397-FAK, read-out: IC50 HT-29

Row | SMILES | IC50 ([1]; Table 3, read-out: FAK IC50) [µM] | IC50 [2, 3] [µM] | IC50 ([1]; Table 4, read-out: IC50 FAK) [µM] | IC50 [2, 4] [µM]
1 | Fc1ccc(CNc2ccnc(-c3cncc(Cl)c3)n2)c(C(F)(F)F)c1 [Compound 119, 2-(5-Chloropyridin-3-yl)-N-[4-fluoro-2-(trifluoromethyl)benzyl]pyrimidin-4-amine] | < 0.1 | 1 to 10 | – | –
2 | CC(Nc1ccnc(-c2cncc(Cl)c2)n1)c1ccccc1C(F)(F)F (stereo not shown) [Compound 124, 2-(5-Chloropyridin-3-yl)-N-{1-[2-(trifluoromethyl)phenyl]ethyl}pyrimidin-4-amine] | < 0.1 | 1 to 10 | – | –
3 | Nc1ncc(Cl)cc1-c1nccc(NCc2ccc(F)cc2F)n1 [Compound 126, 2-(2-Amino-5-chloropyridin-3-yl)-N-(2,4-difluorobenzyl)pyrimidin-4-amine] | < 0.1 | 1 to 10 | – | –
4 | Clc1cncc(-c2nccc(NCc3cccc4c3OCO4)n2)c1 [Compound 127, N-(1,3-Benzodioxol-4-ylmethyl)-2-(5-chloropyridin-3-yl)pyrimidin-4-amine] | < 0.1 | > 10 | – | –
5 | Nc1ncc(Cl)cc1-c1nccc(NCc2ccccc2C(F)(F)F)n1 [Compound 129, 2-(2-Amino-5-chloropyridin-3-yl)-N-[2-(trifluoromethyl)benzyl]pyrimidin-4-amine] | < 0.1 | 1 to 10 | – | –
6 | CC(Nc1ccnc(-c2cncc(C(F)(F)F)c2)n1)c1ccccc1C(F)(F)F (stereo not shown) [Compound 130, N-{1-[2-(Trifluoromethyl)phenyl]ethyl}-2-[5-(trifluoromethyl)pyridin-3-yl]pyrimidin-4-amine] | < 0.1 | > 10 | – | –
7 | Clc1cncc(-c2nccc(NCc3cccc4nsnc34)n2)c1 [Compound 131, N-(2,1,3-Benzothiadiazol-4-ylmethyl)-2-(5-chloropyridin-3-yl)pyrimidin-4-amine] | < 0.1 | > 10 | – | –
8 | Nc1ncc(Cl)cc1-c1nccc(NCc2ccc(F)cc2C(F)(F)F)n1 [Compound 134, 2-(2-Amino-5-chloropyridin-3-yl)-N-[4-fluoro-2-(trifluoromethyl)benzyl]pyrimidin-4-amine] | < 0.1 | 1 to 10 | – | –
9 | CN(C)CCNC(=O)c1cc(NCc2ccc(F)cc2F)nc(-c2cncc(C(F)(F)F)c2)n1 [Compound 148, 6-[(2,4-difluorophenyl)methylamino]-N-(2-dimethylaminoethyl)-2-[5-(trifluoromethyl)-3-pyridyl]pyrimidine-4-carboxamide] | – | – | < 0.1 | 0.1 to 1
10 | O=C(NCCN1CCCC1=O)c1cc(NCc2ccc(F)cc2F)nc(-c2cncc(C(F)(F)F)c2)n1 [Compound 160, 6-[(2,4-difluorophenyl)methylamino]-N-[2-(2-oxopyrrolidin-1-yl)ethyl]-2-[5-(trifluoromethyl)-3-pyridyl]pyrimidine-4-carboxamide] | – | – | < 0.1 | 0.1 to 1

Other lines, results leading:

Row | IC50 ([1]; Table 3, read-out: FAK IC50) [µM] | IC50 [2, 3] [µM] | IC50 ([1]; Table 4, read-out: IC50 FAK) [µM] | IC50 [2, 4] [µM] | SMILES
11 | < 0.1 | 1 to 10 | – | – | Fc1ccc(CNc2ccnc(-c3cncc(C(F)(F)F)c3)n2)c(C(F)(F)F)c1 [Compound 123, N-[4-Fluoro-2-(trifluoromethyl)benzyl]-2-[5-(trifluoromethyl)pyridin-3-yl]pyrimidin-4-amine]
12 | < 0.1 | 1 to 10 | – | – | Fc1ccc(CNc2ccnc(-c3cncc(C(F)(F)F)c3)n2)c(F)c1 [Compound 125, N-(2,4-Difluorobenzyl)-2-[5-(trifluoromethyl)pyridin-3-yl]pyrimidin-4-amine]
13 | < 0.1 | 1 to 10 | – | – | FC(F)(F)c1cncc(-c2nccc(NCc3ccc(Cl)cc3C(F)(F)F)n2)c1 [Compound 132, N-[4-Chloro-2-(trifluoromethyl)benzyl]-2-[5-(trifluoro-methyl)pyridin-3-yl]pyrimidin-4-amine]
14 | – | – | 0.1 to 1 | 1 to 10 | Fc1ccc(F)c(CNc2ccnc(-c3cncc(C(F)(F)F)c3)n2)c1 [Compound 154, N-[(2,5-difluorophenyl)methyl]-2-[5-(trifluoromethyl)-3-pyridyl]pyrimidin-4-amine]
